Test systems include KM12; Malme-3M; SF-295; RXF 393; SR; MDA-MB-231; U-251; NCI-H226; DU-145; ACHN; TK-10; NCI/ADR-RES; HOP-62; PC-3; LOX IMVI; HL-60; CAKI-1; SK-MEL-28; SK-MEL-5; A549.
Assay in all cases: NCI anticancer screen, dose series, 48 h

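Grown in 96-well plates, cells were treated for 48 hours with each compound at five concentrations. Insufficient inhibition: endpoint recorded as highest concentration tested. At the GI50, growth is halved.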 The source made the active and inactive calls. Cut-off read from the data, not from the text of the source: active = GI50 up to about 1.1 µM and inactive = higher.

Consider `CC(C)(C)c1cc(C(=O)/C=C/c2cc[nH]n2)cc(C(C)(C)C)c1O`, for which the GI50 in the assay with KM12 was 2.29 µM (inactive); in the assay with Malme-3M it was 7.29 µM (inactive); in the assay on SF-295 it was 13.7 µM (inactive); in the assay with RXF 393, 1.69 µM (inactive); in the assay with SR, 1.19 µM (inactive); with MDA-MB-231, 1.91 µM (inactive). The GI50 in the assay on U-251 was 1.73 µM (inactive); with NCI-H226 it was 5.73 µM (inactive); in the assay with DU-145, 2.56 µM (inactive); in the assay with ACHN, 1.62 µM (inactive); with TK-10, 1.54 µM (inactive); in the assay on NCI/ADR-RES it was 4.62 µM (inactive). Moreover, the GI50 in the assay with HOP-62 is 2.86 µM (inactive); with PC-3 it was 2.08 µM (inactive); in the assay on LOX IMVI, 1.85 µM (inactive); with HL-60, 2.23 µM (inactive); with CAKI-1 it was 2.48 µM (inactive); with SK-MEL-28 it was 6.11 µM (inactive). Also, the results for the GI50 in the assay with SK-MEL-5 and with A549 were 7.52 µM (inactive) and 3.02 µM (inactive), respectively.
As to `NNc1nncn1N`, the GI50 was > 100 µM (inactive) in the assay with KM12; > 55 µM (inactive) in the assay with Malme-3M; > 100 µM (inactive) in the assay on SF-295; > 100 µM (inactive) in the assay on RXF 393; 39.1 µM (inactive) with SR; > 100 µM (inactive) with MDA-MB-231. Also, the GI50 is > 100 µM (inactive) in the assay with U-251; > 100 µM (inactive) in the assay on NCI-H226; > 55.2 µM (inactive) with DU-145; > 100 µM (inactive) in the assay with ACHN; > 100 µM (inactive) in the assay with TK-10; > 90.6 µM (inactive) with NCI/ADR-RES. In addition, the GI50 was > 100 µM (inactive) in the assay on HOP-62; > 100 µM (inactive) with PC-3; > 90.4 µM (inactive) in the assay on LOX IMVI; 5.71 µM (inactive) in the assay on HL-60; > 100 µM (inactive) in the assay on CAKI-1; > 100 µM (inactive) in the assay with SK-MEL-28. Also, the GI50 in the assay with SK-MEL-5 and in the assay with A549 was > 100 µM (inactive) in each case.
Regarding `O=c1cc(/N=N/c2ccc(O)cc2)[nH]c(=O)[nH]1`, the GI50 with KM12 is 16.9 µM (inactive); in the assay on Malme-3M, 28.8 µM (inactive); with SF-295, > 100 µM (inactive); in the assay on RXF 393, 42.1 µM (inactive); with SR, > 100 µM (inactive); with MDA-MB-231, > 100 µM (inactive). In addition, the GI50 in the assay with U-251 was 60.8 µM (inactive); in the assay with NCI-H226 it was > 100 µM (inactive); in the assay with DU-145, > 100 µM (inactive); in the assay on ACHN, > 100 µM (inactive); in the assay with TK-10, 99.3 µM (inactive); in the assay on NCI/ADR-RES, > 100 µM (inactive). Also, the GI50 in the assay on HOP-62 was 62.8 µM (inactive); in the assay on PC-3, > 100 µM (inactive); in the assay on LOX IMVI it was 79.6 µM (inactive); in the assay with HL-60 it was > 100 µM (inactive); in the assay on CAKI-1, > 100 µM (inactive); in the assay with SK-MEL-28, > 100 µM (inactive). Moreover, the GI50 with SK-MEL-5 and in the assay on A549 was > 100 µM (inactive) in each case.
Take `CCOC(=O)C(=O)/C(=C/N1C(=O)CC(=O)NC1=S)C(=O)OCC`: the GI50 in the assay with KM12, in the assay on Malme-3M, in the assay on SF-295, with RXF 393, with SR and with MDA-MB-231 was > 100 µM (inactive) each time. Also, the GI50 in the assay on U-251, in the assay with NCI-H226, in the assay with DU-145, in the assay with ACHN, with NCI/ADR-RES and in the assay on HOP-62 was > 100 µM (inactive) in each case. The GI50 with PC-3, with LOX IMVI, with HL-60, with CAKI-1, with SK-MEL-28 and in the assay on SK-MEL-5 was > 100 µM (inactive) each time. In the assay with A549, the GI50 was > 100 µM (inactive).
As to `CC(C)NCCCNc1c2ccccc2nc2cccc([N+](=O)[O-])c12`, the GI50 was 0.0169 µM (active) in the assay on KM12; 0.0133 µM (active) in the assay on Malme-3M; 0.00746 µM (active) in the assay with SF-295; 0.00427 µM (active) with RXF 393; < 0.001 µM (active) in the assay on SR; 0.0132 µM (active) with MDA-MB-231. The GI50 is 0.0143 µM (active) with U-251; 0.0219 µM (active) in the assay with NCI-H226; 0.0065 µM (active) in the assay with DU-145; 0.0136 µM (active) in the assay with ACHN; 0.0373 µM (active) in the assay with TK-10; 0.794 µM (active) in the assay with NCI/ADR-RES. The GI50 in the assay on HOP-62 is 0.0279 µM (active); in the assay on PC-3, 0.00745 µM (active); in the assay on LOX IMVI, 0.0101 µM (active); in the assay with HL-60, 0.013 µM (active); with CAKI-1, 0.029 µM (active); in the assay on SK-MEL-28 it was 0.144 µM (active). Also, the GI50 in the assay on SK-MEL-5 is 0.00354 µM (active); in the assay with A549 it was 0.00358 µM (active).
On to `O=C(N/N=C1/C(=O)c2c3ccccc3cc3cccc1c23)c1ccccc1`, for which the GI50 in the assay with KM12 was 16.7 µM (inactive); with Malme-3M, 33.5 µM (inactive); with SF-295 it was 20.5 µM (inactive); in the assay on RXF 393 it was 22.1 µM (inactive); with SR, > 58.6 µM (inactive); in the assay on MDA-MB-231, 42.4 µM (inactive). The GI50 in the assay on U-251 was 31.6 µM (inactive); with NCI-H226 it was > 43.8 µM (inactive); in the assay with DU-145, 4.49 µM (inactive); in the assay on ACHN, 29.1 µM (inactive); with TK-10, 22.1 µM (inactive); in the assay on NCI/ADR-RES, 40 µM (inactive). The GI50 with HOP-62 was 19.5 µM (inactive); in the assay on PC-3 it was 26.7 µM (inactive); in the assay on LOX IMVI it was 37.9 µM (inactive); in the assay with HL-60, > 68.9 µM (inactive); in the assay with CAKI-1, 26.4 µM (inactive); in the assay with SK-MEL-28, > 54.8 µM (inactive). The GI50 in the assay on SK-MEL-5 was 23.6 µM (inactive); in the assay on A549 it was 12.2 µM (inactive).
Turning to `O=C(c1ccccc1)c1nc2ccc(Cl)cc2cc1C(Br)Br`, the GI50 was 0.34 µM (active) with KM12; 1.6 µM (inactive) in the assay with Malme-3M; 0.261 µM (active) in the assay on SF-295; 0.216 µM (active) in the assay on RXF 393; 1.68 µM (inactive) in the assay with SR; 0.0685 µM (active) with MDA-MB-231. The GI50 in the assay on U-251 is 0.192 µM (active); with NCI-H226 it was 1.68 µM (inactive); in the assay on DU-145 it was 1.03 µM (active); with ACHN, 0.263 µM (active); with TK-10, 0.687 µM (active); in the assay with NCI/ADR-RES it was 0.161 µM (active). Besides, the GI50 in the assay with HOP-62 is 0.641 µM (active); with PC-3, 0.225 µM (active); in the assay on LOX IMVI it was 1.47 µM (inactive); in the assay on HL-60 it was 0.222 µM (active); in the assay with CAKI-1 it was 0.552 µM (active); with SK-MEL-28 it was 0.261 µM (active). Moreover, the GI50 in the assay on SK-MEL-5 is 0.692 µM (active); in the assay on A549, 1.44 µM (inactive).
For the molecule `CC1(C)CC[C@]2(C(=O)O)CC[C@]3(C)C(=CC[C@@H]4[C@@]5(C)CC[C@H](OC6OC(CO)C(O)C(O)C6OC6OC(CO)C(O)C(O)C6O)C(C)(C)[C@@H]5CC[C@]43C)[C@@H]2C1` (stereo not given in full), the GI50 with KM12 is 15.5 µM (inactive); in the assay with Malme-3M, 15.5 µM (inactive); with SF-295 it was 18.8 µM (inactive); in the assay on RXF 393, 19.1 µM (inactive); in the assay with SR, 22.5 µM (inactive); in the assay on MDA-MB-231, 26.4 µM (inactive). The GI50 with U-251 was 2.38 µM (inactive); in the assay with NCI-H226, 17.6 µM (inactive); in the assay with DU-145 it was 17.2 µM (inactive); in the assay with ACHN, 18.5 µM (inactive); in the assay with NCI/ADR-RES it was 21.2 µM (inactive); with HOP-62 it was 17.8 µM (inactive). In addition, the GI50 in the assay on PC-3 was 17 µM (inactive); with LOX IMVI it was 28.2 µM (inactive); in the assay on HL-60 it was 21.9 µM (inactive); in the assay on CAKI-1, 19.5 µM (inactive); in the assay on SK-MEL-28 it was 14.6 µM (inactive); in the assay with SK-MEL-5, 19 µM (inactive). For the same molecule, the GI50 in the assay with A549 was 18.3 µM (inactive).
Turning to `O=C1O[C@H]2[C@@H]3OC(=O)c4cc(O)c(O)c(O)c4-c4c(cc(O)c(O)c4O)C(=O)OC[C@H]2O[C@@H](OC(=O)c2cc(O)c(O)c(O)c2)[C@@H]3OC(=O)c2cc(O)c(O)c3c2[C@@H]2C1=CC(=O)C(O)(O)C2(O)O3` (stereo not given in full), the GI50 in the assay with KM12 was 22.1 µM (inactive); in the assay on Malme-3M, 84.9 µM (inactive); with SF-295 it was 31.6 µM (inactive); with RXF 393, 36.5 µM (inactive); with SR it was 29 µM (inactive); in the assay on MDA-MB-231, 19.8 µM (inactive). Further, the GI50 is 15.6 µM (inactive) with U-251; 23.2 µM (inactive) with NCI-H226; 47 µM (inactive) with DU-145; 31.5 µM (inactive) in the assay with ACHN; 39.3 µM (inactive) in the assay with NCI/ADR-RES; 38.8 µM (inactive) in the assay with HOP-62. The GI50 is 39.7 µM (inactive) in the assay with PC-3; 13.3 µM (inactive) with LOX IMVI; 20.7 µM (inactive) in the assay on HL-60; 14.1 µM (inactive) in the assay on CAKI-1; > 100 µM (inactive) in the assay with SK-MEL-28; 25.5 µM (inactive) with SK-MEL-5. Further, the GI50 in the assay on A549 was 25.9 µM (inactive).
In the case of `C[C@H](CCC(=O)O)[C@H]1CC[C@H]2[C@@H]3[C@@H](O)C[C@@H]4C[C@H](O)CC[C@]4(C)[C@H]3CC[C@]12C` [URSODIOL], the GI50 is > 100 µM (inactive) in the assay with KM12; > 100 µM (inactive) in the assay with Malme-3M; > 100 µM (inactive) in the assay on RXF 393; 25.1 µM (inactive) in the assay on SR; > 100 µM (inactive) in the assay with MDA-MB-231; > 100 µM (inactive) in the assay with U-251. The GI50 in the assay with NCI-H226, in the assay on DU-145, with ACHN, in the assay on TK-10, in the assay with NCI/ADR-RES and in the assay on HOP-62 was > 100 µM (inactive) each time. Also, the GI50 with PC-3, with LOX IMVI, with HL-60, in the assay on CAKI-1, in the assay with SK-MEL-28 and with A549 was > 100 µM (inactive) each time.

The values are drawn from ChEMBL document CHEMBL1201862, “PubChem BioAssay data set” (2004).
